Experimental data from PMC8584173, “The Cytotoxic Effect of Copper (II) Complexes with Halogenated 1,3-Disubstituted Arylthioureas on Cancer and Bacterial Cells” (International Journal of Molecular Sciences, 2021).
Values belong to the compound of their own block, whether it stands above or below them.

Assays:
[1] = system: SW480 (human primary colon cancer); assay: MTT cytotoxicity assay, SW480; type: cell-based; conditions: SW480, 72 h
Protocol: (§1) The human primary (SW480), metastatic (SW620) colon cancer, metastatic prostate cancer (PC3) and human immortal keratinocyte (HaCaT) cell lines were purchased from the American Type Culture Collection (ATCC, Rockville, USA). The cells were cultured in medium according to protocols (MEM for SW480 and SW620, RPMI 1640 for PC3 and DMEM for HaCaT cells) supplemented with 10% fetal bovine serum (FBS), penicillin (100 U/mL) and streptomycin (100 μg/mL) and cultured in 37 °C/ 5% CO2 humidified incubator. The cells were cultured until appropriate confluence was achieved (80–90%). Next, they were harvested by treatment with 0.25% trypsin (Gibco Life Technologies, USA) and used for studies.
(§2) Cells without studied compounds in medium were used as a control.
(§3) The cell viability was assessed by determination of MTT salt (3-(4,5-dimethylthiazol-2-yl)-2,5-diphenyltetrazolium bromide) conversion by mitochondrial dehydrogenase. MTT assay was performed as previously described. Experiments were repeated three times. Cell viability was presented as a percentage of MTT reduction in the treated cells versus the control cells. Number of viable cells cultured without studied compounds was assumed to be 100%. Decreased relative MTT level means decreased cell viability. Thiourea complexes with the highest cytotoxic potential assessed by MTT determination (with the lowest IC50) were chosen for subsequent assessments of cytotoxicity mechanisms.

[2] = system: HaCaT (human immortal keratinocyte cell line); assay: MTT cytotoxicity assay, HaCaT; type: cell-based; conditions: HaCaT normal cells, 72 h
Protocol: as §1, §2, §3

[3] = system: SW620 (human metastatic colon cancer); assay: MTT cytotoxicity assay, SW620; type: cell-based; conditions: SW620, 72 h
Protocol: as §1, §2
as §3, with “viability.” for “viability. Thiourea complexes with the highest cytotoxic potential assessed by MTT determination (with the lowest IC50) were chosen for subsequent assessments of cytotoxicity mechanisms.”

HaCaT cell = system: HaCaT cell; set-up: method as in PMID 30248936; conditions: at the concentration 8 µM; cited from earlier work
[4] = system: PC3 (human metastatic prostate cancer); assay: MTT cytotoxicity assay, PC3; type: cell-based; conditions: PC3, 72 h, MTT
Protocol: as §1, §2, §3

all strains = assay: MIC, all strains; type: cell-based
Protocol: The antimicrobial activity of the compounds was tested on Gram-positive bacteria (Staphylococcus aureus NCTC 4163, Staphylococcus aureus ATCC 25923, Staphylococcus aureus ATCC 6538, Staphylococcus aureus ATCC 29213, Staphylococcus epidermidis ATCC 12228, Staphylococcus epidermidis ATCC 35984), Gram-negative rods (Escherichia coli ATCC 10538, Escherichia coli ATCC 25922, Pseudomonas aeruginosa ATCC 15442, Pseudomonas aeruginosa ATCC 27863) and yeasts (Candida albicans ATCC 10231, Candida albicans ATCC 90028, Candida parapsilosis ATCC 22019). Hospital methicillin-resistant strains of Staphylococcus aureus and Staphylococcus epidermidis were obtained from the collection of the Department of Pharmaceutical Microbiology, Medical University of Warsaw, Poland.
Antifungal activities were assessed using Mueller–Hinton agar + 2% glucose and 0.5 µg/mL methylene blue dye medium. Sterile filter paper discs (9 mm diameter, Whatman Number 3 chromatography paper) were dripped with tested compound solutions (in dimethylsulfoxide, DMSO) to load 400 μg of a given compound per disc. […] The results (diameter of the growth inhibition zone) were read after 18 h of incubation at 35 °C. […] Minimal inhibitory concentrations (the lowest concentration of a tested agent that prevents visible growth of a microorganism) were read after 18 h (bacteria) or 24 h (yeasts) of incubation at 35 °C.

HaCaT cells [5] = system: HaCaT cells; set-up: method as in ref 1S; conditions: also printed as 2 mM; ref 1S; cited from earlier work
colon cancer cells = system: colon cancer cells; set-up: method as in ref 2S; conditions: at 100 μM, ref 2S; cited from earlier work
PC3 cells [6] = system: PC3 cells; set-up: method as in ref 3S; conditions: 200 μM, ref 3S; cited from earlier work
PANC-1 = system: PANC-1; set-up: method as in ref 3S; conditions: PANC-1, 100 μM; ref 3S; cited from earlier work
SW480 cells = assay: Annexin V-FITC/PI flow cytometry, SW480; type: cell-based, human; conditions: SW480, 72 h
Protocol: (§4) The cells were cultured and harvested under the conditions described in the cell culture section. […] The effect of these compounds on the process of early and late apoptosis and necrosis was determined, as described previously, by dual staining with annexin V-FITC and propidium iodide according to manufacturer’s protocol (Becton Dickinson). The cells that were annexin V-FITC positive and PI-negative were identified as early apoptotic and annexin V-FITC and PI-positive as late apoptotic or necrotic.

HaCaT cells [7] = assay: Annexin V-FITC/PI flow cytometry, HaCaT; type: cell-based, human; conditions: 72 h
Protocol: as §4

HaCaT cells [8] = assay: LDH release assay, HaCaT; type: cell-based, human; conditions: doxorubicin (1.5 μM stated for the cancer lines)
Protocol: The presence of lactate dehydrogenase (LDH) in culture medium indicates a disturbance of the integrity of the cellular membrane. The LDH activity was performed after 72 h incubation of cells (1 × 10^4 cells per well) in 96-well plates with selected compounds according to manufacturer’s protocol (Roche Diagnostics, Germany), as was described by Chrzanowska et al.. Compound mediated cytotoxicity was determined using equation: ((A test sample−A low control)/ (A high control−A low control)) × 100% (A-absorbance), where “low control” means cells in medium with 2% FBS without tested compounds, and “high control” means cells incubated in medium with 2% FBS and 1% Triton X-100 (100% LDH release). The cytotoxicity was expressed as percentage of LDH release as compared with the maximum release of LDH from Triton-X-100-treated cells.

SW620 cells = assay: Annexin V-FITC/PI flow cytometry, SW620; type: cell-based, human; conditions: SW620, 72 h
Protocol: as §4

PC3 cells [9] = assay: Annexin V-FITC/PI flow cytometry, PC3; type: cell-based, human; conditions: PC3, 72 h
Protocol: as §4

interleukin-6 (IL-6) = assay: IL-6 level assay (ELISA); type: cell-based, human; conditions: PC3, IC50 dose, 72 h
Protocol: IL-6 concentration at all studied cancer cells and normal HaCaT cell lines was measured by ELISA kit (Diaclon SAS Besancon Cedex, France). […] IL-6 in cell culture supernatant was measured using enzyme-linked immunosorbent assay in accordance with the manufacturer’s protocol.

[10] = system: clinical methicillin-resistant strains of S. aureus (MRSA) and S. epidermidis (MRSE); conditions: cited from earlier work
[11] = system: standard bacterial strains; set-up: method as in PMID 29499458; conditions: cited from earlier work

Compound: N.N.[Cl][Pt][Cl] [Cisplatin, reference compound]
IC50 [1]: 10.4 ± 0.9 µM
IC50 [2]: 6.3 ± 0.7 µM
IC50 [3]: 6.7 ± 1.1 µM

Compound: O=[N+]([O-])c1cc(NC(=S)Nc2ccc(Cl)c(Cl)c2)ccc1Cl [Compound L5, 1-(4-chloro-3-nitrophenyl)-3-(3,4-dichlorophenyl)thiourea]
decrease in HaCaT cell viability (HaCaT cell): approximately 20%

MIC (all strains): ≥ 128 µg/mL
Compound: [Cl][Cu][Cl] [CuCl2, copper (II) chloride, reference compound]
IC50 [1]: 109 ± 7.6 µM
IC50 [4]: 106 ± 6.3 µM
IC50 [2]: 114 ± 4.8 µM
IC50 ([2]; listed as copper (II) chloride): > 100 µM
IC50 [3]: 96.3 ± 5.2 µM

Compound: CN(C)C=O [DMF, dimethylformamide]
concentration at which DMF influenced HaCaT cells (HaCaT cells [5]): 140 µg/mL
LDH release (colon cancer cells): not increase LDH release
apoptosis (PC3 cells [6]): 85%
apoptosis (PANC-1): 30%

Compound: COc1cccc2c1C(=O)c1c(O)c3c(c(O)c1C2=O)C[C@@](O)(C(=O)CO)C[C@@H]3O[C@H]1C[C@H](N)[C@H](O)[C@H](C)O1 [Doxorubicin, reference compound]
cells at the necrotic stage (SW480 cells): 86%
IC50 ([1]; Homo sapiens): 0.75 ± 0.1 µM
cells at the necrotic stage (HaCaT cells [7]): 42%
IC50 ([2]; Homo sapiens): 0.29 ± 0.1 µM
LDH release (HaCaT cells [8]): 80%
cells at the necrotic stage (SW620 cells): 51%
cells at the necrotic stage (PC3 cells [9]): 50%
late apoptosis, % of cells (PC3 cells [9]): 23%
reduction of IL-6 secretion, times (interleukin-6 (IL-6)): almost twofold

Compound: copper (II) complex of 1-(3-chloro-4-fluorophenyl)-3-[3-trifluoromethyl)phenylthiourea
MIC [10]: 4 to 8 µg/mL
MIC [11]: 4 to 256 µg/mL
